Results on ten molecules are retold here after patent US11414689B2, “Hydrolysis of steviol glycosides by beta-glucosidase” (Conagen Inc., priority 2017, dated 2022).

Assay [1] deals with Beta-glucosidase (B-glu1, SEQ: 1). Briefly: de-glycosylation (hydrolysis) of steviol glycosides by purified recombinant B-glu1, HPLC analysis. The class given is biochemical, Pichia pastoris. The conditions noted are these: for Products of hydrolysis of steviol glycoside substrate by B-glu1: recombinant B-glu1 10 μg in 300 μl, 1 mg/ml steviol glycoside, 50 mM potassium phosphate pH 7.2, 30-37° C.; for extent of conversion by recombinant B-glu1 at 24 hrs: 1 g/L substrate. From the text: According to the current disclosure Pichia pastoris genome analysis was completed and several beta-glycosidase candidate genes were identified. Full length DNA fragments of all candidate beta-glucosidase genes were commercially synthesized. Almost all codons of the cDNA were changed to those preferred for E. coli (Genscript, NJ). The synthesized DNA was cloned into a bacterial expression vector pETite N-His SUMO Kan Vector (Lucigen). These same experiments could be performed in Yarrowia lipolytica with sequences optimized for such use.
Each expression construct was transformed into E. coli BL21 (DE3), which was subsequently grown in LB media containing 50 μg/mL kanamycin at 37° C. until reaching an OD600 of 0.8-1.0. Protein expression was induced by addition of 1 mM isopropyl β-D-1-thiogalactopyranoside (IPTG) and the culture was further grown at 16° C. for 22 hr. Cells were harvested by centrifugation (3,000×g; 10 min; 4° C.). The cell pellets were collected and were either used immediately or stored at −80° C.
The cell pellets typically were re-suspended in lysis buffer (50 mM potassium phosphate buffer, pH 7.2, 25 ug/ml lysozyme, 5 ug/ml DNase I, 20 mM imidazole, 500 mM NaCl, 10% glycerol, and 0.4% Triton X-100). The cells were disrupted by sonication under 4° C., and the cell debris was clarified by centrifugation (18,000×g; 30 min). Supernatant was loaded to an equilibrated (equilibration buffer: 50 mM potassium phosphate buffer, pH 7.2, 20 mM imidazole, 500 mM NaCl, 10% glycerol) Ni-NTA (Qiagen) affinity column. After loading of protein sample, the column was washed with equilibration buffer to remove unbound contaminant proteins. The His-tagged beta-glucosidase recombinant polypeptides were eluted by equilibration buffer containing 250 mM imidazole.
The purified candidate beta-glucosidase recombinant polypeptides were assayed for de-glycosylation activity by using various steviol glycosides as substrate. Typically, the recombinant polypeptide (10 μg) was tested in a 300 μl in vitro reaction system. The reaction system contains 50 mM potassium phosphate buffer, pH 7.2, 1 mg/ml steviol glycoside. The reaction was performed at 30-37° C. and 50 ul reaction was terminated by adding 200 μL 1-butanol at various time points. The samples were extracted three times with 200 μL 1-butanol. The pooled fraction was dried and dissolved in 100 μL 80% methanol for high-performance liquid chromatography (HPLC) analysis.
HPLC analysis was then performed using a Dionex UPLC ultimate 3000 system (Sunnyvale, Calif.), including a quaternary pump, a temperature controlled column compartment, an auto sampler and a UV absorbance detector. A Synergi Hydro-RP column (Phenomenex) with guard column was used for the characterization of steviol glycosides in the pooled samples. Acetonitrile in water was used mobile phase in the HPLC analysis. The detection wavelength used in the HPLC analysis was 210 nm.

For assay [2], the system named is disrupted Pichia cells (released B-glu1 enzyme). The experiment in a line: hydrolysis of steviol glycosides by disrupted Pichia cells (crude extract), HPLC analysis. The assay is classed as biochemical, Pichia pastoris. The conditions noted are these: crude protein 50 ug in 300 ul, 1 g/L substrate, pH 7.2, 30-37° C.; FIG. 8 samples at 24 hours. The protocol: Pichia cells were suspended in extraction buffer (50 mM potassium phosphate buffer, pH 7.2; 150 mM NaCl). After sonication, the supernatant (crude extract) was collected by centrifuge set at 12,000 g at 4° C. The resulting crude protein (50 ug) was tested in a 300 ul in vitro reaction system. The reaction system contains 50 mM potassium phosphate buffer, pH 7.2, 1 mg/ml steviol glycoside. The reaction was performed at 30-37° C. and 50 ul reaction was terminated by adding 200 μL 1-butanol at various time points. The samples were extracted three times with 200 μL 1-butanol. The pooled fraction was dried and dissolved in 100 μL 80% methanol for high-performance liquid chromatography (HPLC) analysis. HPLC analysis was then performed using a Dionex UPLC ultimate 3000 system (Sunnyvale, Calif.), including a quaternary pump, a temperature controlled column compartment, an auto sampler and a UV absorbance detector. A Synergi Hydro-RP column (Phenomenex) with guard column was used for the characterization of steviol glycosides in the pooled samples. Acetonitrile in water was used mobile phase in the HPLC analysis. The detection wavelength used in the HPLC analysis was 210 nm.

For the molecule `C=C1C[C@@]23CC[C@H]4[C@@](C)(CCC[C@@]4(C)C(=O)O[C@@H]4O[C@H](CO)[C@@H](O)[C@H](O)[C@H]4O)[C@@H]2CC[C@]1(O[C@@H]1O[C@H](CO)[C@@H](O)[C@H](O[C@@H]2O[C@H](CO)[C@@H](O)[C@H](O)[C@H]2O)[C@H]1O)C3` [Reb G, rebaudioside G], the “Products of hydrolysis of steviol glycoside substrate by B-glu1” value (“Products of hydrolysis … by B-glu1” for short) is reported as “Steviol-13-O-glucoside (S-13-G), steviol” in assay [1] and “steviol-13-glucoside” in assay [1] (listed as Rebaudioside G). The “Products of hydrolysis by disrupted Pichia cells” value in assay [2] was “steviol-13-glucoside and continually to produce steviol”.
In the case of `C=C1C[C@@]23CC[C@H]4[C@@](C)(CCC[C@@]4(C)C(=O)O[C@@H]4O[C@H](CO)[C@@H](O)[C@H](O)[C@H]4O)[C@@H]2CC[C@]1(O[C@@H]1O[C@H](CO)[C@@H](O)[C@H](O[C@@H]2O[C@H](CO)[C@@H](O)[C@H](O)[C@H]2O)[C@H]1O[C@@H]1O[C@H](CO)[C@@H](O)[C@H](O)[C@H]1O)C3` [Reb A, rebaudioside A], the “Products of hydrolysis … by B-glu1” value in assay [1] is reported as “Reb B”; in assay [1] (listed as Rebaudioside A), “rebaudioside B”. Besides, the “Products of hydrolysis by disrupted Pichia cells” value in assay [2] is recorded as “rebaudioside B”.
With `C=C1C[C@@]23CC[C@H]4[C@@](C)(CCC[C@@]4(C)C(=O)O)[C@@H]2CC[C@]1(O[C@@H]1O[C@H](CO)[C@@H](O)[C@H](O)[C@H]1O)C3` [steviol-13-glucoside], in assay [1], the “extent of conversion by recombinant B-glu1 at 24 hrs” value is on record as “completely” and the “Products of hydrolysis … by B-glu1” value is recorded as “steviol”.
Take `C=C1C[C@@]23CC[C@H]4[C@@](C)(CCC[C@@]4(C)C(=O)O[C@@H]4O[C@H](CO)[C@@H](O)[C@H](O)[C@H]4O[C@@H]4O[C@H](CO)[C@@H](O)[C@H](O)[C@H]4O)[C@@H]2CC[C@]1(O[C@@H]1O[C@H](CO)[C@@H](O)[C@H](O[C@@H]2O[C@H](CO)[C@@H](O)[C@H](O)[C@H]2O)[C@H]1O[C@@H]1O[C@H](CO)[C@@H](O)[C@H](O)[C@H]1O)C3` [Reb D, rebaudioside D]: the “Products of hydrolysis … by B-glu1” value in assay [1] was “Reb B”; in assay [1] (listed as Rebaudioside D) it was “rebaudioside B (FIG. 6B) and Reb A”. Moreover, the “Products of hydrolysis by disrupted Pichia cells” value in assay [2] was “rebaudioside B”.
With `C=C1C[C@@]23CC[C@H]4[C@@](C)(CCC[C@@]4(C)C(=O)O[C@@H]4O[C@H](CO)[C@@H](O)[C@H](O)[C@H]4O)[C@@H]2CC[C@]1(O[C@@H]1O[C@H](CO)[C@@H](O)[C@H](O)[C@H]1O)C3` [Rub, rubusoside], the “Products of hydrolysis … by B-glu1” value in assay [1] was “Steviol-13-O-glucoside (S-13-G), steviol”; in assay [1] (listed as Rubusoside), “steviol-13-glucoside”. The “Products of hydrolysis by disrupted Pichia cells” value in assay [2] is “steviol-13-glucoside and continually to produce steviol”.
As to `C=C1C[C@@]23CC[C@H]4[C@@](C)(CCC[C@@]4(C)C(=O)O[C@@H]4O[C@H](CO)[C@@H](O)[C@H](O[C@@H]5O[C@H](CO)[C@@H](O)[C@H](O)[C@H]5O)[C@H]4O)[C@@H]2CC[C@]1(O[C@@H]1O[C@H](CO)[C@@H](O)[C@H](O[C@@H]2O[C@H](CO)[C@@H](O)[C@H](O)[C@H]2O)[C@H]1O[C@@H]1O[C@H](CO)[C@@H](O)[C@H](O)[C@H]1O)C3` [Reb 1, rebaudioside I], the “extent of conversion by recombinant B-glu1 at 24 hrs” value in assay [1] is given as “completely”. Also, the “Products of hydrolysis … by B-glu1” value in assay [1] was “Reb A, Reb B”; in assay [1] (listed as Rebaudioside I) it was “rebaudioside A and the produced A can be hydrolyzed to produce rebaudioside B”. Also, the “Products of hydrolysis by disrupted Pichia cells” value in assay [2] is “rebaudioside B”.
With rebaudioside B [Reb B], the “Products of hydrolysis … by B-glu1” value in assay [1] is recorded as “No cleavage”.
`C=C1C[C@@]23CC[C@H]4[C@@](C)(CCC[C@@]4(C)C(=O)O[C@@H]4O[C@H](CO)[C@@H](O)[C@H](O[C@@H]5O[C@H](CO)[C@@H](O)[C@H](O)[C@H]5O)[C@H]4O[C@@H]4O[C@H](CO)[C@@H](O)[C@H](O)[C@H]4O)[C@@H]2CC[C@]1(O[C@@H]1O[C@H](CO)[C@@H](O)[C@H](O[C@@H]2O[C@H](CO)[C@@H](O)[C@H](O)[C@H]2O)[C@H]1O[C@@H]1O[C@H](CO)[C@@H](O)[C@H](O)[C@H]1O)C3` [Reb M, rebaudioside M]: the “Products of hydrolysis … by B-glu1” value in assay [1] is listed as “No cleavage”.
Take `C=C1C[C@@]23CC[C@H]4[C@@](C)(CCC[C@@]4(C)C(=O)O[C@@H]4O[C@H](CO)[C@@H](O)[C@H](O)[C@H]4O[C@@H]4O[C@H](CO)[C@@H](O)[C@H](O)[C@H]4O)[C@@H]2CC[C@]1(O[C@@H]1O[C@H](CO)[C@@H](O)[C@H](O)[C@H]1O[C@@H]1O[C@H](CO)[C@@H](O)[C@H](O)[C@H]1O)C3` [Reb E, rebaudioside E]: the “Products of hydrolysis … by B-glu1” value in assay [1] is “stevioside, Steviolbioside (SB)”; in assay [1] (listed as Rebaudioside E), “stevioside and steviolbioside”. For the same molecule, in assay [2], the “Products of hydrolysis by disrupted Pichia cells” value is reported as “steviolbioside”.

B1: B-glu1: Pichia pastoris (GS115) beta-glucosidase, SEQ ID NO: 1, His-tagged, expressed in E. coli (protein, listed as Pichia pastoris)
chain: MTQLDVESLIQELTLNEKVQLLSGSDFWHTTPVRRLGIPKMRLSDGPNGVRGTKFFNGVPTACFPCGTGLGATFDKELLKEAGSLMADEAKAKAASVVLGPTANIARGPNGGRGFESFGEDPVVNGLSSAAMINGLQGKYIAATMKHYVCNDLEMDRNCIDAQVSHRALREVYLLPFQIAVRDANPRAIMTAYNKANGEHVSQSKFLLDEVLRKEWGWDGLLMSDWFGVYDAKSSITNGLDLEMPGPPQCRVHSATDHAINSGEIHINDVDERVRSLLSLINYCHQSGVTEEDPETSDNNTPETIEKLRKISRESIVLLKDDDRNRSILPLKKSDKIAVIGNNAKQAAYCGGGSASVLSYHTTTPFDSIKSRLEDSNTPAYTIGADAYKNLPPLGPQMTDSDGKPGFDAKFFVGSPTSKDRKLIDHFQLTNSQVFLVDYYNEQIPENKEFYVDVEGQFIPEEDGTYNFGLTVFGTGRLFVDDKLVSDSSQNQTPGDSFFGLAAQEVIGSIHLVKGKAYKIKVLYGSSVTRTYEIAASVAFEGGAFTFGAAKQRNEDEEIARAVEIAKANDKVVLCIGLNQDFESEGFDRPDIKIPGATNKMVSAVLKANPNTVIVNQTGTPVEMPWASDAPVILQAWFGGSEAGTAIADVLFGDYNPSGKLTVTFPLRFEDNPAYLNFQSNKQACWYGEDVYVGYRYYETIDRPVLFPFGHGLSFTEFDFTDMFVRLEEENLEVEVVVRNTGKYDGAEVVQLYVAPVSPSLKRPIKELKEYAKIFLASGEAKTVHLSVPIKYATSFFDEYQKKWCSEKGEYTILLGSSSADIKVSQSITLEKTTFWKGL
modifications: His tag
Consider B1, for which the “activity to cleave related steviol glycosides” value in assay [1] (activity screening of candidate Pichia pastoris beta-glucosidases) was “strong activity”.
